Experimental data: patent EP4800014A1 (Tuojie Biotech (Shanghai) Co., Ltd., priority 2023, dated 2025)

What was measured:
[1] = system: Ovarian cancer cells OVCAR3; assay: Inhibitory activity against ovarian cancer cells (OVCAR3), CellTiter-Glo cell viability; assay type: cell-based; conditions: for IC50: Homo sapiens, OVCAR-3, 120 h, OVCAR3 cells, 2500 cells/well, 5 days with compound, highest concentration 10 µM, Celltiter Glo; for inhibitory activity against OVCAR3 tumor cells compared with Janssen-01: comparison in words with the disclosed compound Janssen-01
Method: Test Example 1. Assay for Inhibitory Activity of Compounds of Present Disclosure Against Ovarian Cancer Cells (OVCAR3)
Ovarian cancer cells OVCAR3 (source: Nanjing Cobioer Biosciences Co., Ltd.) were cultured in an RPMI 1640 culture medium supplemented with 10% FBS in a cell incubator at 37 °C with 5% CO2. On day one, the cells were plated in a 96-well plate at a cell concentration of 2500 cells/well and cultured overnight in an incubator. On day two, the cells were treated with compounds. The highest compound concentration was 10 µM and was diluted 3-fold to obtain 9 concentrations, and the final concentration of DMSO was 0.1%. After the cells were cultured in the incubator for another 5 days, the cell viability was measured using a Celltiter Glo assay kit (Promega) by a method consistent with that provided by the kit. Data were processed using GraphPad Prism 8, and IC50 was calculated. [formula] X: the logarithm of the compound concentration; Y: % inhibition; Bottom: bottom; Top: top; HillSlope: Hill slope. Table 2. The IC50 (nM) of the compounds of the present disclosure against OVCAR3

CDK1/CyclinB = CDK1/CyclinB (Homo sapiens, UniProt P06493); assay: ADP-Glo kinase assay, CDK1; assay type: biochemical; conditions: 16.5 nM CDK1/CyclinB, 20 µM ATP (Km), 0.1 mg/mL histone H1, 120 min; read-out: inhibitory activity (IC50, nM) CDK1
CDK1/CyclinB, sequence (P06493 whole entry, species assumed): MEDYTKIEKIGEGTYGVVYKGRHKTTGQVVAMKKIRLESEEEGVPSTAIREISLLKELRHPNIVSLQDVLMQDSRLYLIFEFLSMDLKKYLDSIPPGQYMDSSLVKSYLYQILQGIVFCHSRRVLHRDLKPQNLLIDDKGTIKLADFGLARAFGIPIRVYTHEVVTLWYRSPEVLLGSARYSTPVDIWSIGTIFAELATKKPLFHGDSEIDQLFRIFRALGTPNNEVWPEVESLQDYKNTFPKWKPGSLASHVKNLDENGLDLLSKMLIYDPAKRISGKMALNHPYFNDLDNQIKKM
CDK1/CyclinB, sequence (P14635 whole entry partner, species assumed): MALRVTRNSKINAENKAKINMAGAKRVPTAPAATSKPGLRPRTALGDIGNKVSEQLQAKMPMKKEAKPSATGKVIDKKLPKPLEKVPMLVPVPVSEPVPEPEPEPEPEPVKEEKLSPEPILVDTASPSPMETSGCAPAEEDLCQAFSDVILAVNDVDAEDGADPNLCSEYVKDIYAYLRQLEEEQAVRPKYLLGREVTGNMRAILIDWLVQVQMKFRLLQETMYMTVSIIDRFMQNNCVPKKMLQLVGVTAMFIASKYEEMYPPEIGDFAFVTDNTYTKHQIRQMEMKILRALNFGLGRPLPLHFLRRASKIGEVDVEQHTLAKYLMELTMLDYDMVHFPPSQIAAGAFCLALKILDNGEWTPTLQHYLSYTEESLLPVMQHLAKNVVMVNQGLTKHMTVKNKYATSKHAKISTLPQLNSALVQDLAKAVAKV
Method: (§1) An ADP-Glo kinase assay was used for testing the activity of CDKs. The compounds were diluted in 384-well plates using Echo. The starting concentration was 10 µM and was diluted 3-fold to obtain 10 concentration points, and each concentration was tested in duplicate. The final concentration of DMSO in the assay system was 1%. CDK solutions (final concentrations: 16.5 nM CDK1/CyclinB, 1 nM CDK2/CyclinE1, 16.3 nM CDK4/CyclinD1, 15.7 nM CDK6/CyclinD3, 80 nM CDK7/Cyclin H/MAT1, and 15.3 nM CDK9/Cyclin T1) prepared with assay buffer were added at 2.5 µL, and the enzymes and compounds were pre-incubated at room temperature for 10 min. […] After thorough mixing, the plates were incubated at room temperature (for 120 min for CDK1/4/9 and for 60 min for CDK2/6/7). 4 µL of the ADP-Glo reagent was added, and the plates were incubated at room temperature for 40 min. 8 µL of the kinase assay reagent was added, and the plates were incubated at room temperature for 40 min. Readings were taken using an Envision multimode microplate reader. Data were processed using GraphPad Prism 8, and IC50 was calculated. [formula] X: the logarithm of the compound concentration; Y: % inhibition; Bottom: bottom; Top: top; HillSlope: Hill slope. Table 3. The inhibitory activity (IC50, nM) of the compounds of the present disclosure against CDKs

CDK2/CyclinE1 = CDK2/CyclinE1 (Homo sapiens, UniProt P24941); assay: ADP-Glo kinase assay, CDK2; assay type: biochemical; conditions: 1 nM CDK2/CyclinE1, 15 µM ATP (Km), 0.1 mg/mL histone H1, 60 min; read-out: inhibitory activity (IC50, nM) CDK2
Method: as §1

CDK4/CyclinD1 = CDK4/CyclinD1 (Homo sapiens, UniProt P11802); assay: ADP-Glo kinase assay, CDK4; assay type: biochemical; conditions: 16.3 nM CDK4/CyclinD1, 200 µM ATP (Km), 0.2 mg/mL DYRKtide, 120 min; read-out: inhibitory activity (IC50, nM) CDK4
CDK4/CyclinD1, sequence (P11802 whole entry, species assumed): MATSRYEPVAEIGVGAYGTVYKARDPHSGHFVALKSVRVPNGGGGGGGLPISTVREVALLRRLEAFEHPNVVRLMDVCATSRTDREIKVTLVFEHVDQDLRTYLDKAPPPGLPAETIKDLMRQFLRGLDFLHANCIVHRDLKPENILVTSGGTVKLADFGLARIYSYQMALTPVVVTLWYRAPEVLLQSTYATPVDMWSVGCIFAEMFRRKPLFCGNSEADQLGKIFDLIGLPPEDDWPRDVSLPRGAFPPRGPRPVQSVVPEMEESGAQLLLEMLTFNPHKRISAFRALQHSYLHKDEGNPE
CDK4/CyclinD1, sequence (P24385 whole entry partner, species assumed): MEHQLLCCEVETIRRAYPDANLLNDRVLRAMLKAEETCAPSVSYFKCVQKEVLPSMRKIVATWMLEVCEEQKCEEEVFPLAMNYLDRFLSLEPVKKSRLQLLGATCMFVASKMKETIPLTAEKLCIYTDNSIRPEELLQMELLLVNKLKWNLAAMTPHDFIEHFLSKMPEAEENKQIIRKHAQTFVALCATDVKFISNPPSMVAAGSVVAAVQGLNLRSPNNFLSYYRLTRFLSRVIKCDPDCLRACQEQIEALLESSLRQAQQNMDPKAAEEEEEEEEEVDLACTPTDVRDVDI
Method: as §1

CDK6/CyclinD3 = CDK6/CyclinD3 (Homo sapiens, UniProt Q00534); assay: ADP-Glo kinase assay, CDK6; assay type: biochemical; conditions: 15.7 nM CDK6/CyclinD3, 200 µM ATP (Km), 0.1 mg/mL histone H1, 60 min; read-out: inhibitory activity (IC50, nM) CDK 6
CDK6/CyclinD3, sequence (Q00534 whole entry, species assumed): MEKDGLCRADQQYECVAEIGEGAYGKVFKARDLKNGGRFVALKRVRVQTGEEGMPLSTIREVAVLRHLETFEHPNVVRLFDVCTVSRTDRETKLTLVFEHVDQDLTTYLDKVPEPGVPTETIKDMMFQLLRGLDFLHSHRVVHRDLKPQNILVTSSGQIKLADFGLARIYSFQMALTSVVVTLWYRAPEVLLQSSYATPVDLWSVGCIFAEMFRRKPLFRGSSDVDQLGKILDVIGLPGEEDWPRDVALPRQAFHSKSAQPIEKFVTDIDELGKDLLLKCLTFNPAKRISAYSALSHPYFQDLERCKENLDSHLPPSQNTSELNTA
CDK6/CyclinD3, sequence (P30281 whole entry partner, species assumed): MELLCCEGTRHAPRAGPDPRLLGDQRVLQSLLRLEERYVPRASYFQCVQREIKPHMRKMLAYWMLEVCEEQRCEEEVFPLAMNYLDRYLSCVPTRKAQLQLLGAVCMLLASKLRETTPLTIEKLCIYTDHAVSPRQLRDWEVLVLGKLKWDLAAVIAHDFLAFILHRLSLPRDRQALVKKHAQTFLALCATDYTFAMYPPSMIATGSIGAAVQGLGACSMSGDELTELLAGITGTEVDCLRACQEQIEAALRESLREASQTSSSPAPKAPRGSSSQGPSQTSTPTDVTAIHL
Method: as §1

CDK7/Cyclin H/MAT1 = CDK7/Cyclin H/MAT1 (Homo sapiens, UniProt P50613); assay: ADP-Glo kinase assay, CDK7; assay type: biochemical; conditions: 80 nM CDK7/Cyclin H/MAT1, 70 µM ATP (Km), 0.2 mg/mL MBP, 60 min; read-out: inhibitory activity (IC50, nM) CDK7
CDK7/Cyclin H/MAT1, sequence (P50613 whole entry, species assumed): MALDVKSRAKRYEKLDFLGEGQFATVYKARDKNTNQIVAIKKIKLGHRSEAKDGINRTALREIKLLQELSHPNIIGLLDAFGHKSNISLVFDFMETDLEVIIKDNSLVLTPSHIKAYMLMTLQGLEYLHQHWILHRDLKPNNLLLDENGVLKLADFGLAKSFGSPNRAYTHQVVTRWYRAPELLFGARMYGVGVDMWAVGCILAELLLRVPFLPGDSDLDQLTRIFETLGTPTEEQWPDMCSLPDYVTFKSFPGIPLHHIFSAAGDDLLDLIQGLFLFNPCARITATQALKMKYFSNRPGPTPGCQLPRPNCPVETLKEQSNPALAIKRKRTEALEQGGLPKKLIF
CDK7/Cyclin H/MAT1, sequence (P51946 whole entry partner, species assumed): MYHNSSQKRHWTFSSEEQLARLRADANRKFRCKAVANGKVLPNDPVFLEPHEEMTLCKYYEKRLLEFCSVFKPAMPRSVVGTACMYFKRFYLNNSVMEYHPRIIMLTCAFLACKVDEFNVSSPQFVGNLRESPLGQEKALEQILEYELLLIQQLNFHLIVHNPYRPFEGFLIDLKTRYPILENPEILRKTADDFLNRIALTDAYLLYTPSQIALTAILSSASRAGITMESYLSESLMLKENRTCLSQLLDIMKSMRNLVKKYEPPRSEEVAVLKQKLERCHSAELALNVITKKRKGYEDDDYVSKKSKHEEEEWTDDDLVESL
CDK7/Cyclin H/MAT1, sequence (P51948 whole entry partner, species assumed): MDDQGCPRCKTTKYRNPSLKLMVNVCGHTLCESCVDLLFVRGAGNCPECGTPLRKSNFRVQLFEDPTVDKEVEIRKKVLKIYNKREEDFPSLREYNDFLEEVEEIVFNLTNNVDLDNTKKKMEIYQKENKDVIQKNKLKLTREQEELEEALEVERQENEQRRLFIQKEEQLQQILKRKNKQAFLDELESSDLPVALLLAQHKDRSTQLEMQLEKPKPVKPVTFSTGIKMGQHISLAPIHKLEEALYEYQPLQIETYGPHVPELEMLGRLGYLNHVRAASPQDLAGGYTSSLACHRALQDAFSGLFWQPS
Method: as §1

CDK9/Cyclin T1 = CDK9/Cyclin T1 (Homo sapiens, UniProt P50750); assay: ADP-Glo kinase assay, CDK9; assay type: biochemical; conditions: 15.3 nM CDK9/Cyclin T1, 60 µM ATP (Km), 0.2 mg/mL PDKtide, 120 min; read-out: inhibitory activity (IC50, nM) CDK9
CDK9/Cyclin T1, sequence (P50750 whole entry, species assumed): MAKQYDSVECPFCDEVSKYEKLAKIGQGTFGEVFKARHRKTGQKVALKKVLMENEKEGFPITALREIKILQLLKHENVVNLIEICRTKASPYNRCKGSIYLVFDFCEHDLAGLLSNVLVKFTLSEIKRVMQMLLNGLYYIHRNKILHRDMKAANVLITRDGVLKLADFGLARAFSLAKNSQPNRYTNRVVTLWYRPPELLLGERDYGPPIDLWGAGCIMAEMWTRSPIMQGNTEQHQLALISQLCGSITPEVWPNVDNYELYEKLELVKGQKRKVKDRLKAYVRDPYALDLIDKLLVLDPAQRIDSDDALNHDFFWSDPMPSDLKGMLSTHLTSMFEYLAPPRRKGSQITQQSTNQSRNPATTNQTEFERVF
CDK9/Cyclin T1, sequence (O60563 whole entry partner, species assumed): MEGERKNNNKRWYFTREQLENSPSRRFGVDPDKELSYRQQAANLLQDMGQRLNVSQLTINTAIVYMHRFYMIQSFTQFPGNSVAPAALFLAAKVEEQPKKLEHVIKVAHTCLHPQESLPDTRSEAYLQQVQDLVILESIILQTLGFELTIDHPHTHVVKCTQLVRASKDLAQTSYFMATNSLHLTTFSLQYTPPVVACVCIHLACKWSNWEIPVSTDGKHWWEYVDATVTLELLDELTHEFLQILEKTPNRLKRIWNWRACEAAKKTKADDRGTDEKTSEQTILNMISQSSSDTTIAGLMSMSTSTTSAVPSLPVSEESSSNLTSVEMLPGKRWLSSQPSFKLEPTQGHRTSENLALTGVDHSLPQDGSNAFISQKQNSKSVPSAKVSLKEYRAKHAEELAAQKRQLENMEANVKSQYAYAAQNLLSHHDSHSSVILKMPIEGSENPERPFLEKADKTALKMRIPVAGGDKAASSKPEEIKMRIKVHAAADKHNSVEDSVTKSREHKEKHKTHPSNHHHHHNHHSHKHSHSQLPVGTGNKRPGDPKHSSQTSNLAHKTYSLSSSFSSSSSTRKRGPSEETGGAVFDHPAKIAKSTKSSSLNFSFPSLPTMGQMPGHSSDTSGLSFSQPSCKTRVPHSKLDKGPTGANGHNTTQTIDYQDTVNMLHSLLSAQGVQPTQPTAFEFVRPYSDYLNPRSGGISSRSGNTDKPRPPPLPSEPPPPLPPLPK
Method: as §1

Compound: Cc1csc(CNc2ncc3c(n2)CN(C(=O)N[C@H](CN(C)C)c2ccccc2)[C@H](C)C3)n1 [Compound 1]
- IC50 [1]: 10.2 nM

Compound: Cc1csc([C@H](C)Nc2ncc3c(n2)CN(C(=O)N[C@H](CN(C)C)c2ccccc2)[C@H](C)C3)n1 [Compound 2-1, (R)-N-((S)-2-(Dimethylamino)-1-phenylethyl)-6-methyl-2-(((S)-1-(4-methylthiazol-2-yl)ethyl)amino)-5,8-dihydropyrido[3,4-d]pyrimidine-7(6H)-carboxamide]
- IC50 [1]: < 1.5 nM
- inhibitory activity against OVCAR3 tumor cells compared with Janssen-01 [1]: significantly better than that of the disclosed compound Janssen-01
- IC50 (CDK1/CyclinB): > 1000 nM
- IC50 (CDK2/CyclinE1): 711 nM
- IC50 (CDK4/CyclinD1): > 1000 nM
- IC50 (CDK6/CyclinD3): > 1000 nM
- IC50 (CDK7/Cyclin H/MAT1): 0.96 nM
- IC50 (CDK9/Cyclin T1): > 1000 nM

Compound: Cc1csc([C@@H](C)Nc2ncc3c(n2)CN(C(=O)N[C@H](CN(C)C)c2ccccc2)[C@H](C)C3)n1 [Compound 2-2, (R)-N-((S)-2-(Dimethylamino)-1-phenylethyl)-6-methyl-2-(((R)-1-(4-methylthiazol-2-yl)ethyl)amino)-5,8-dihydropyrido[3,4-d]pyrimidine-7(6H)-carboxamide]
- IC50 [1]: 66 nM

Compound: Cc1csc(C(C)Nc2ncc3c(n2)CN(C(=O)N[C@H](CN(C)C)c2ccccc2)[C@H](C)C3)n1 (stereo partly drawn) [Compound 2]
- IC50 [1]: 3.98 nM

Compound: [2H]C([2H])([2H])N(C[C@@H](NC(=O)N1Cc2nc(N[C@@H](C)c3nc(C)cs3)ncc2C[C@H]1C)c1ccccc1)C([2H])([2H])[2H] [Compound 3-1, (R)-N-((S)-2-(Bis(methyl-d3)amino)-1-phenylethyl)-6-methyl-2-(((S)-1-(4-methylthiazo 1-2-yl)ethyl)amino)-5,8-dihydropyrido[3,4-d]pyrimidine-7(6H)-carboxamide]
- IC50 [1]: < 1.5 nM
- inhibitory activity against OVCAR3 tumor cells compared with Janssen-01 [1]: significantly better than that of the disclosed compound Janssen-01

Compound: [2H]C([2H])([2H])N(C[C@@H](NC(=O)N1Cc2nc(N[C@H](C)c3nc(C)cs3)ncc2C[C@H]1C)c1ccccc1)C([2H])([2H])[2H] [Compound 3-2, (R)-N-((S)-2-(Bis(methyl-d3)amino)-1-phenylethyl)-6-methyl-2-(((R)-1-(4-methylthiazo 1-2-yl)ethyl)amino)-5,8-dihydropyrido[3,4-d]pyrimidine-7(6H)-carboxamide]
- IC50 [1]: 101 nM

Compound: C[C@H](Nc1ncc2c(n1)CN(C(=O)N[C@H](CN(C)C)c1ccccc1)[C@H](C)C2)c1nc(C2CC2)cs1 [Compound 4, (R)-2-(((S)-1-(4-Cyclopropylthiazol-2-yl)ethyl)amino)-N-((S)-2-(dimethylamino)-1-phenylethyl)-6-methyl-5,8-dihydropyrido[3,4-d]pyrimidine-7(6H)-carboxamide]
- IC50 [1]: < 1.5 nM
- inhibitory activity against OVCAR3 tumor cells compared with Janssen-01 [1]: significantly better than that of the disclosed compound Janssen-01
- IC50 (CDK1/CyclinB): > 1000 nM
- IC50 (CDK2/CyclinE1): 571 nM
- IC50 (CDK4/CyclinD1): > 1000 nM
- IC50 (CDK6/CyclinD3): > 1000 nM
- IC50 (CDK7/Cyclin H/MAT1): 0.55 nM
- IC50 (CDK9/Cyclin T1): > 1000 nM

Compound: C[C@@H]1Cc2cnc(N[C@H](C)c3nc(C4CC4)cs3)nc2CN1C(=O)N[C@H](CN(C)C)c1ccccc1 [Compound 5, (R)-2-(((R)-1-(4-Cyclopropylthiazol-2-yl)ethyl)amino)-N-((S)-2-(dimethylamino)-1-phenylethyl)-6-methyl-5,8-dihydropyrido[3,4-d]pyrimidine-7(6H)-carboxamide]
- IC50 [1]: 17.5 nM

Compound: C[C@@H]1Cc2cnc(NCc3nc(C4CC4)cs3)nc2CN1C(=O)N[C@H](CN(C)C)c1ccccc1 [Compound 6, (R)-2-(((4-Cyclopropylthiazol-2-yl)methyl)amino)-N-((S)-2-(dimethylamino)-1-phenylethyl)-6-methyl-5,8-dihydropyrido[3,4-d]pyrimidine-7(6H)-carboxamide]
- IC50 [1]: 10.7 nM

Compound: [2H]C([2H])([2H])N(C[C@@H](NC(=O)N1Cc2nc(NCc3nc(C)cs3)ncc2C[C@H]1C)c1ccccc1)C([2H])([2H])[2H] [Compound 7]
- IC50 [1]: 11.2 nM

Compound: [2H]C([2H])([2H])N(C[C@@H](NC(=O)N1Cc2nc(NCc3nc(C4CC4)cs3)ncc2C[C@H]1C)c1ccccc1)C([2H])([2H])[2H] [Compound 8, (R)-2-(((4-Cyclopropylthiazol-2-yl)methyl)amino)-N-((S)-2-(bis(methyl-d3)amino)-1-phenylethyl)-6-methyl-5,8-dihydropyrido[3,4-d]pyrimidine-7(6H)-carboxamide]
- IC50 [1]: 9.89 nM

Compound: [2H]C([2H])([2H])N(C[C@@H](NC(=O)N1Cc2nc(N[C@@H](C)c3nc(C4CC4)cs3)ncc2C[C@H]1C)c1ccccc1)C([2H])([2H])[2H] [Compound 9, (R)-2-(((S)-1-(4-Cyclopropylthiazol-2-yl)ethyl)amino)-N-((S)-2-(bis(methyl-d3)amino)-1-phenylethyl)-6-methyl-5,8-dihydropyrido[3,4-d]pyrimidine-7(6H)-carboxamide]
- IC50 [1]: < 1.5 nM
- inhibitory activity against OVCAR3 tumor cells compared with Janssen-01 [1]: significantly better than that of the disclosed compound Janssen-01

Compound: [2H]C([2H])([2H])N(C[C@@H](NC(=O)N1Cc2nc(N[C@H](C)c3nc(C4CC4)cs3)ncc2C[C@H]1C)c1ccccc1)C([2H])([2H])[2H] [Compound 10, (R)-2-(((R)-1-(4-Cyclopropylthiazol-2-yl)ethyl)amino)-N-((S)-2-(bis(methyl-d3)amino)-1-phenylethyl)-6-methyl-5,8-dihydropyrido[3,4-d]pyrimidine-7(6H)-carboxamide]
- IC50 [1]: 19.3 nM

Compound: C[C@H](Nc1ncc2c(n1)CN(C(=O)N[C@H](CN(C)C)c1ccccc1)[C@H](C)C2)c1nc(CO)cs1 [Compound 11-1, (R)-N-((S)-2-(Dimethylamino)-1-phenylethyl)-2-(((S)-1-(4-(hydroxymethyl)thiazol-2-yl)ethyl)amino)-6-methyl-5,8-dihydropyrido[3,4-d]pyrimidine-7(6H)-carboxamide]
- IC50 [1]: 1.89 nM
- inhibitory activity against OVCAR3 tumor cells compared with Janssen-01 [1]: significantly better than that of the disclosed compound Janssen-01

Compound: C[C@@H]1Cc2cnc(N[C@H](C)c3nc(CO)cs3)nc2CN1C(=O)N[C@H](CN(C)C)c1ccccc1 [Compound 11-2, (R)-N-((S)-2-(Dimethylamino)-1-phenylethyl)-2-(((R)-1-(4-(hydroxymethyl)thiazol-2-yl)ethyl)amino)-6-methyl-5,8-dihydropyrido[3,4-d]pyrimidine-7(6H)-carboxamide]
- IC50 [1]: 190 nM

Compound: C[C@@H]1Cc2cnc(NCc3ccn(C)n3)nc2CN1C(=O)[C@H]1CCN(C)C[C@@H]1c1ccccc1 [Janssen-01, reference compound]
- IC50 [1]: 22.2 nM
